Measured values published in PMC12028158, “Synthesis and In Vitro Evaluation of the Anticancer Effect of Novel Phosphonium Vindoline Derivatives” (International Journal of Molecular Sciences, 2025).
Where two headings read alike, the source gives them in different places.

Columns and labels:
Format in all cases: cell-based
CCRF-CEM = test: NCI60 five-dose screen; settings: Homo sapiens
MOLT-4 = test: NCI60 five-dose screen; settings: Homo sapiens
HOP-62 = test: NCI60 five-dose screen; settings: Homo sapiens
NCI-H522 [1] = test: NCI60 five-dose screen; settings: Homo sapiens
HCT-116 [2] = test: NCI60 five-dose screen; settings: Homo sapiens
HCT-15 [3] = test: NCI60 five-dose screen; settings: Homo sapiens
HT29 = test: NCI60 five-dose screen; settings: Homo sapiens, HT-29
SW-620 = test: NCI60 five-dose screen; settings: Homo sapiens
LOX IMVI = test: NCI60 five-dose screen; settings: Homo sapiens
MALME-3M = test: NCI60 five-dose screen; settings: Homo sapiens
MDA-MB-435 = test: NCI60 five-dose screen; settings: Homo sapiens
SK-MEL-5 = test: NCI60 five-dose screen; settings: Homo sapiens
UACC-62 = test: NCI60 five-dose screen; settings: Homo sapiens
IGROV1 [4] = test: NCI60 five-dose screen; settings: Homo sapiens, IGROV-1
OVCAR-4 [5] = test: NCI60 five-dose screen; settings: Homo sapiens
SK-OV-3 = test: NCI60 five-dose screen; settings: Homo sapiens
ACHN [6] = test: NCI60 five-dose screen; settings: Homo sapiens
T-47D = test: NCI60 five-dose screen; settings: Homo sapiens, T47D
Leukemia panel = test: NCI60 five-dose screen, panel mean; settings: Homo sapiens, read-out: GI50 Mean
Colon Cancer panel = test: NCI60 five-dose screen, panel mean; settings: Homo sapiens, read-out: GI50 Mean
CNS Cancer panel = test: NCI60 five-dose screen, panel mean; settings: Homo sapiens, read-out: GI50 Mean
Ovarian Cancer panel = test: NCI60 five-dose screen, panel mean; settings: Homo sapiens, read-out: GI50 Mean
Renal Cancer panel = test: NCI60 five-dose screen, panel mean; settings: Homo sapiens, read-out: GI50 Mean
Breast Cancer panel = test: NCI60 five-dose screen, panel mean; settings: Homo sapiens, read-out: GI50 Mean
HL-60(TB) = test: NCI60 one-dose screen; settings: Homo sapiens
EKVX = test: NCI60 one-dose screen; settings: Homo sapiens, read-out: Growth percent
NCI-H23 = test: NCI60 one-dose screen; settings: Homo sapiens
NCI-H322M = test: NCI60 one-dose screen; settings: Homo sapiens, read-out: Growth percent
NCI-H522 [7] = test: NCI60 one-dose screen; settings: Homo sapiens
HCC-2998 = test: NCI60 one-dose screen; settings: Homo sapiens
HCT-116 [8] = test: NCI60 one-dose screen; settings: Homo sapiens
HCT-15 [9] = test: NCI60 one-dose screen; settings: Homo sapiens
SF-295 = test: NCI60 one-dose screen; settings: Homo sapiens
M14 = test: NCI60 one-dose screen; settings: Homo sapiens
SK-MEL-28 = test: NCI60 one-dose screen; settings: Homo sapiens
IGROV1 [10] = test: NCI60 one-dose screen; settings: Homo sapiens
OVCAR-3 = test: NCI60 one-dose screen; settings: Homo sapiens
OVCAR-4 [11] = test: NCI60 one-dose screen; settings: Homo sapiens
OVCAR-5 = test: NCI60 one-dose screen; settings: Homo sapiens
OVCAR-8 = test: NCI60 one-dose screen; settings: Homo sapiens
NCI/ADR-RES = test: NCI60 one-dose screen; settings: Homo sapiens, read-out: Growth percent
ACHN [12] = test: NCI60 one-dose screen; settings: Homo sapiens, read-out: Growth percent
CAKI-1 = test: NCI60 one-dose screen; settings: Homo sapiens
RXF 393 = test: NCI60 one-dose screen; settings: Homo sapiens
DU-145 = test: NCI60 one-dose screen; settings: Homo sapiens
BT-549 = test: NCI60 one-dose screen; settings: Homo sapiens
[13] = tested on: 60 human tumor cell lines (NCI60); test: NCI60 one-dose screen, overall mean; settings: Homo sapiens, read-out: Mean growth percent

## CC[C@]12C=CCN3CC[C@@]4(c5ccc(OC)cc5N(C)[C@H]4[C@@](O)(C(=O)OC)[C@@H]1OC(=O)CCCC[P+](c1ccc(F)cc1)(c1ccc(F)cc1)c1ccc(F)cc1)[C@@H]32 [10c]
CCRF-CEM; Leukemia, read-out: GI50
  GI50: 13.6 µM
MOLT-4; MOLT-4, Leukemia, read-out: GI50
  GI50: 14.7 µM
HOP-62; HOP-62, Non-small Cell Lung Cancer, read-out: GI50
  GI50: 25.5 µM
NCI-H522 [1]; NCI-H522, Non-small Cell Lung Cancer, read-out: GI50
  GI50: 5.44 µM
HCT-116 [2]; HCT-116, Colon Cancer, read-out: GI50
  GI50: 25.9 µM
HCT-15 [3]; HCT-15, Colon Cancer, read-out: GI50
  GI50: > 100 µM
HT29; HT29, Colon Cancer, read-out: GI50
  GI50: 15.4 µM
SW-620; SW-620, Colon Cancer, read-out: GI50
  GI50: 16.5 µM
LOX IMVI; Melanoma, read-out: GI50
  GI50: 16.8 µM
MALME-3M; MALME-3M, Melanoma, read-out: GI50
  GI50: 13.5 µM
MDA-MB-435; MDA-MB-435, Melanoma, read-out: GI50
  GI50: 12.9 µM
SK-MEL-5; SK-MEL-5, Melanoma, read-out: GI50
  GI50: 17.1 µM
UACC-62; UACC-62, Melanoma, read-out: GI50
  GI50: 11.3 µM
IGROV1 [4]; IGROV1, Ovarian Cancer, read-out: GI50
  GI50: 10.8 µM
OVCAR-4 [5]; OVCAR-4, Ovarian Cancer, read-out: GI50
  GI50: 25.1 µM
SK-OV-3; SK-OV-3, Ovarian Cancer, read-out: GI50
  GI50: 23.5 µM
ACHN [6]; Renal Cancer, read-out: GI50
  GI50: > 100 µM
T-47D; T-47D, Breast Cancer, read-out: GI50
  GI50: 11.5 µM
Leukemia panel; mean over Leukemia panel
  GI50: 9.86 µM
Colon Cancer panel; mean over Colon Cancer panel
  GI50: 26.9 µM
CNS Cancer panel; mean over CNS Cancer panel
  GI50: 18.8 µM
Ovarian Cancer panel; mean over Ovarian Cancer panel
  GI50: 32.5 µM
Renal Cancer panel; mean over Renal Cancer panel
  GI50: 56.7 µM
Breast Cancer panel; mean over Breast Cancer panel
  GI50: 11.1 µM
HL-60(TB); HL-60(TB), 10 μM, one-dose, read-out: Growth percent
  activity at 10 µM: -32.2%
EKVX; 10 μM, one-dose
  activity at 10 µM: 53%
NCI-H23; NCI-H23, 10 μM, one-dose, read-out: Growth percent
  activity at 10 µM: 23.6%
NCI-H322M; 10 μM, one-dose
  activity at 10 µM: 52.9%
NCI-H522 [7]; NCI-H522, 10 μM, one-dose, read-out: Growth percent
  activity at 10 µM: -11.6%
HCC-2998; HCC-2998, 10 μM, one-dose, read-out: Growth percent
  activity at 10 µM: 19.4%
HCT-116 [8]; HCT-116, 10 μM, one-dose, read-out: Growth percent
  activity at 10 µM: 23.4%
HCT-15 [9]; HCT-15, 10 μM, one-dose, read-out: Growth percent
  activity at 10 µM: 102%
SF-295; SF-295, 10 μM, one-dose, read-out: Growth percent
  activity at 10 µM: 78.5%
M14; M14, 10 μM, one-dose, read-out: Growth percent
  activity at 10 µM: 19.7%
SK-MEL-28; SK-MEL-28, 10 μM, one-dose, read-out: Growth percent
  activity at 10 µM: -54.9%
IGROV1 [10]; IGROV-1, IGROV1, 10 μM, one-dose, read-out: Growth percent
  activity at 10 µM: -42.8%
OVCAR-3; OVCAR-3, 10 μM, one-dose, read-out: Growth percent
  activity at 10 µM: 12.6%
OVCAR-4 [11]; OVCAR-4, 10 μM, one-dose, read-out: Growth percent
  activity at 10 µM: 33.1%
OVCAR-5; OVCAR-5, 10 μM, one-dose, read-out: Growth percent
  activity at 10 µM: 49.7%
OVCAR-8; OVCAR-8, 10 μM, one-dose, read-out: Growth percent
  activity at 10 µM: 20%
NCI/ADR-RES; 10 μM, one-dose
  activity at 10 µM: 105%
ACHN [12]; 10 μM, one-dose
  activity at 10 µM: 103%
CAKI-1; CAKI-1, 10 μM, one-dose, read-out: Growth percent
  activity at 10 µM: 73.2%
RXF 393; RXF 393, 10 μM, one-dose, read-out: Growth percent
  activity at 10 µM: -9.93%
DU-145; DU-145, 10 μM, one-dose, read-out: Growth percent
  activity at 10 µM: 36.4%
BT-549; BT-549, 10 μM, one-dose, read-out: Growth percent
  activity at 10 µM: -23.5%
[13]; mean over 60 cell lines, 10 μM, one-dose
  activity at 10 µM: 17%

## CC[C@]12C=CCN3CC[C@@]4(c5ccc(OC)cc5N(C)[C@H]4[C@@](O)(C(=O)OC)[C@@H]1OC(=O)CCCC[P+](C1CCCCC1)(C1CCCCC1)C1CCCCC1)[C@@H]32 [10d]
CCRF-CEM
  GI50: 2.55 µM
MOLT-4; MOLT-4
  GI50: 1.72 µM
HOP-62; HOP-62
  GI50: 3.9 µM
NCI-H522 [1]; NCI-H522
  GI50: 0.642 µM
HCT-116 [2]; HCT-116
  GI50: 2.94 µM
HCT-15 [3]; HCT-15
  GI50: 16.1 µM
HT29
  GI50: 1.43 µM
SW-620; SW-620
  GI50: 2.75 µM
LOX IMVI
  GI50: 2.9 µM
MALME-3M; Malme-3M
  GI50: 1.63 µM
MDA-MB-435; MDA-MB-435
  GI50: 2.62 µM
SK-MEL-5; SK-MEL-5
  GI50: 1.88 µM
UACC-62; UACC-62
  GI50: 1.53 µM
IGROV1 [4]
  GI50: 1.36 µM
OVCAR-4 [5]; OVCAR-4
  GI50: 2.72 µM
SK-OV-3; SK-OV-3
  GI50: 2.28 µM
ACHN [6]
  GI50: 16 µM
T-47D
  GI50: 0.92 µM
Leukemia panel
  GI50: 1.22 µM
Colon Cancer panel
  GI50: 3.8 µM
CNS Cancer panel
  GI50: 2.6 µM
Ovarian Cancer panel
  GI50: 11.4 µM
Renal Cancer panel
  GI50: 8.36 µM
Breast Cancer panel
  GI50: 1.48 µM
HL-60(TB); HL-60, read-out: Growth percent
  activity at 10 µM: -36.7%
EKVX
  activity at 10 µM: 13.2%
NCI-H23; NCI-H23, read-out: Growth percent
  activity at 10 µM: -9.66%
NCI-H322M
  activity at 10 µM: 16.1%
NCI-H522 [7]; NCI-H522, read-out: Growth percent
  activity at 10 µM: -71.8%
HCC-2998; HCC 2998, read-out: Growth percent
  activity at 10 µM: -87.8%
HCT-116 [8]; HCT-116, read-out: Growth percent
  activity at 10 µM: 4.69%
HCT-15 [9]; HCT-15, read-out: Growth percent
  activity at 10 µM: 75.2%
SF-295; SF-295, read-out: Growth percent
  activity at 10 µM: -19.6%
M14; M14, read-out: Growth percent
  activity at 10 µM: -83.5%
SK-MEL-28; SK-MEL-28, read-out: Growth percent
  activity at 10 µM: -86.5%
IGROV1 [10]; IGROV-1, read-out: Growth percent
  activity at 10 µM: -84.7%
OVCAR-3; OVCAR-3, read-out: Growth percent
  activity at 10 µM: -60.3%
OVCAR-4 [11]; OVCAR-4, read-out: Growth percent
  activity at 10 µM: 12.4%
OVCAR-5; OVCAR-5, read-out: Growth percent
  activity at 10 µM: 5.84%
OVCAR-8; OVCAR-8, read-out: Growth percent
  activity at 10 µM: -6.33%
NCI/ADR-RES
  activity at 10 µM: 96.7%
ACHN [12]
  activity at 10 µM: 18.7%
CAKI-1; CAKI-1, read-out: Growth percent
  activity at 10 µM: -24.1%
RXF 393; RXF 393, read-out: Growth percent
  activity at 10 µM: -73.8%
DU-145; DU-145, read-out: Growth percent
  activity at 10 µM: 9.57%
BT-549; BT-549, read-out: Growth percent
  activity at 10 µM: -97.4%
[13]; 60 cell
  activity at 10 µM: -36.6%
